In PubChem BioAssay AID1419 (Emory University Molecular Libraries Screening Center, 2008) one finds IC50 and fold change data, which are given here for 66 compounds.

Active and inactive are the calls of the source. The rule behind the calls is not given here.

The assay in a line: EBV protein-peptide binding inhibitors, dose response, biochemical, fluorescence polarization (AID 1419). Conditions: cell-free protein-peptide binding, 2 h; for fold change: measured here: P channel fold over control, at 54 µM.

As a reminder, the IC50 is the concentration needed to halve the response being measured. `Cn1c(=O)c(Nc2ccc(Cl)cc2)c2c3c(cccc31)C(=O)c1ccccc1-2`: the IC50 is less than 0.42 µM and the fold change turned out to be 25.4.

On to `CC1(C)CC(=O)C2=C(C1)OC(N)=C(C#N)[C@@H]2c1ccccc1[N+](=O)[O-]`, for which the IC50 is 2.27 µM and the fold change turned out to be 4.78.

In the case of `Cc1cc(-c2ccc(N3CCOCC3)cc2)nc2ccccc12`, the fold change worked out at 2.8.

In the case of `CCN(CC)c1ccc2cc(NC(=O)CCC(=O)O)c(=O)oc2c1`, the half-inhibitory concentration (IC50) was 1.17 µM and the fold change stood at 12.

As for `CCN1C(=O)/C(=C/C2=Cc3ccccc3OC2C)SC1=S` (stereo unspecified), the IC50 was 17.2 µM and the fold change was determined as 5.33.

Take `Cc1nc2nc(-c3cccs3)cn2nc1C`: the IC50 is 1.87 µM and the fold change amounted to 6.46.

In the case of `COc1ccc(C(=O)NC2(C(F)(F)F)C(=O)N(Cc3ccco3)C3=C2C(=O)CC(C)(C)C3)cc1OC` (stereo unspecified), the IC50 is > 54 µM (inactive) and the fold change amounted to 1.14.

Regarding `OCCCc1nc2n(n1)C(c1cccs1)C=C(c1ccccc1)N2` (stereo unspecified), the IC50 was less than 0.42 µM and the fold change stood at 43.2.

Turning to `CCN(CC)CCN1C2=C(C(=O)CC(C)(C)C2)C(c2cccc(F)c2)C2=C1CC(C)(C)CC2=O`, the IC50 is > 54 µM (inactive) and the fold change was 1.03.

On to `O=C(NCc1ccco1)c1c2c(nc3ccccc13)CCC2`, for which the IC50 was > 54 µM (inactive) and the fold change was 1.05.

Turning to `Cn1c(=O)c(N)c2c3c(c(Br)ccc31)C(=O)c1ccccc1-2`, the IC50 was less than 0.42 µM and the fold change was found to be 98.9.

With `CCOc1ccc(-c2c(C#N)c(N)nc3sc(C(=O)c4ccccc4)c(N)c23)cc1`, the IC50 was > 54 µM (inactive) and the fold change is 4.62.

With `CCOC(=O)/C(C#N)=C/c1cc2ccccc2nc1N1CCCCC1`, the IC50 is 27.1 µM and the fold change was 2.2.

Regarding `CCn1c(SCc2ccc(C(=O)Nc3nccs3)cc2)nnc1-c1ccc(N)cc1`, the IC50 was > 54 µM (inactive) and the fold change was 0.973.

For `CCOC(=O)Cc1csc(SCC(=O)Nc2sc3c(c2C(N)=O)CCC3)n1`, the IC50 is > 54 µM (inactive) and the fold change amounted to 1.09.

Regarding `COc1cc(/C=C2\SC(=O)N(Cc3ccc(Cl)cc3)C2=O)cc([N+](=O)[O-])c1O`, the IC50 is 24.9 µM and the fold change was determined as 1.04.

Regarding `CCSc1cc(N2CCCC2)nc(-c2ccccc2Cl)n1`, the IC50 was 45.7 µM (inactive) and the fold change was found to be 1.05.

For `CC(C)Oc1ccc(NC(=O)CCC(=O)O)cc1`, the IC50 was > 54 µM (inactive) and the fold change came to 1.01.

Take `COc1cc(/C=C2\SC(=O)N(Cc3ccc(F)cc3)C2=O)cc([N+](=O)[O-])c1O`: the IC50 is > 54 µM (inactive) and the fold change is 0.843.

As for `CCN(CC)c1ccc(N=Cc2c(O)n(CCc3ccc(OC)c(OC)c3)c(=O)[nH]c2=O)cc1`, the IC50 is > 54 µM (inactive) and the fold change is 5.55.

On to `COc1ccc2c(c1)c1nc3ccccc3nc1n2Cc1ccc(OC)c(OC)c1`, for which the IC50 is > 54 µM (inactive) and the fold change is 2.

For the compound `CCCCOc1ccc(-c2cc(C(F)(F)F)c(C#N)c(SCC(=O)O)n2)cc1`, the IC50 was 6.68 µM and the fold change turned out to be 4.

In the case of `O=C(O)COc1ccc(/C=N/NC(=O)c2ccc(-c3csc(Nc4ccc(Cl)cc4)n3)cc2)cc1`, the IC50 was 14.7 µM and the fold change was 1.13.

`O=C1/C(=N\S(=O)(=O)c2cccs2)C([n+]2cccc(Cc3ccccc3)c2)=C([O-])c2ccccc21`: the IC50 was 7.66 µM and the fold change came out at 13.9.

Turning to `O=C(CSc1ccsc1[N+](=O)[O-])Nc1cccc(F)c1`, the IC50 was > 54 µM (inactive) and the fold change was 1.11.

As to `CCN1CC=C2C(C1)C(c1ccc(Cl)s1)C(C#N)=C(N)C2(C#N)C#N` (stereo unspecified), the IC50 was 0.95 µM and the fold change is 9.28.

Take `O=C(N/N=C/c1ccccc1Cl)c1nc2ccc([N+](=O)[O-])cc2c(=O)[nH]1`: the IC50 was > 54 µM (inactive) and the fold change was determined as 0.977.

As to `Cc1c2ccccc2nc2c(F)c(NC(C)C)c(F)c(F)c12`, the IC50 was less than 0.42 µM and the fold change worked out at 4.96.

For `CCC(C)NC(=O)c1ccc(CSCc2cccc(F)c2)o1` (stereo unspecified), the IC50 is > 54 µM (inactive) and the fold change was 1.08.

`O=C1c2ccccc2-c2onc3ccc(NCc4ccco4)c1c23`: the IC50 was less than 0.42 µM and the fold change was found to be 61.5.

In the case of `CCOC(=O)c1c(=O)n(O)c2ccc(OC)cc2[n+]1[O-]`, the IC50 was 8.11 µM and the fold change was 1.8.

For the compound `O=C(CSc1nc2ncccc2[nH]1)Nc1ccc2c(c1)OCO2`, the IC50 was > 54 µM (inactive) and the fold change was determined as 1.02.

In the case of `O=[n+]1c2c(n([O-])c3cc(F)c(N4CCCC4)cc31)CCCC2`, the IC50 was less than 0.42 µM and the fold change was 11.6.

In the case of `COC(=O)c1c(Cl)c2n3ccccc3c(C)c(-c3ccccc3)c-2c1C(=O)OC`, the IC50 was 2.39 µM and the fold change was 2.2.

`COc1ccc(/C=C2\CCCc3c2nc2ccccc2c3C(=O)O)cc1OC`: the IC50 was less than 0.42 µM and the fold change was 20.3.

For `O=c1cc(C(F)(F)F)c2cc3c4c(c2o1)CCCN4CCC3`, the IC50 was less than 0.42 µM and the fold change was found to be 57.5.

With `Cc1cc(-c2ccccc2)c(C#N)c(=S)[nH]1`, the IC50 is > 54 µM (inactive) and the fold change amounted to 1.04.

On to `O=C(O)CSc1cc(C(=O)c2ccccc2O)cn2c(=O)c3c4c(sc3nc12)CCCC4`, for which the IC50 is > 54 µM (inactive) and the fold change came out at 1.02.

For `CN1Cc2c(c(C#N)c(N)n(C)c2=S)CC1(C)C`, the IC50 was > 54 µM (inactive) and the fold change stood at 1.89.

Turning to `CN(C(=O)COC(=O)c1cc(-c2ccco2)nc2ccccc12)C1CCS(=O)(=O)C1` (stereo unspecified), the IC50 was 2.91 µM and the fold change came out at 0.9.

Turning to `Cc1nn(C)cc1N1C(=O)c2cccc3c(N)ccc(c23)C1=O`, the IC50 is less than 0.42 µM and the fold change was 109.

Take `CC(=O)N1CCCc2cc(S(=O)(=O)N(CC(C)C)CC(C)C)ccc21`: the IC50 is > 54 µM (inactive) and the fold change worked out at 0.967.

Turning to `O=[N+]([O-])c1cc(/C=N\Nc2nccs2)ccc1O`, the half-inhibitory concentration (IC50) is 1.31 µM and the fold change was found to be 1.07.

Turning to `OCCCc1nc2n(n1)C(c1cccs1)C=C(c1ccc(Br)cc1)N2` (stereo unspecified), the IC50 is less than 0.42 µM and the fold change was 37.6.

As to `CCOc1ccc2nc(N3C(=O)/C(=C/c4ccc(Cl)cc4)NC3=S)sc2c1`, the IC50 is > 54 µM (inactive) and the fold change was 1.35.

Consider `Cc1cccc(N2C(=O)c3cccc4c(N(C)CCO)ccc(c34)C2=O)c1`, for which the IC50 was less than 0.42 µM and the fold change is 34.9.

As to `Cc1ccc2[nH]c(O)c(N=NC(=O)c3ccc(NS(=O)(=O)c4cccs4)cc3)c2c1`, the IC50 is > 54 µM (inactive) and the fold change amounted to 0.957.

`Cc1ccc(S(=O)(=O)C(C#N)c2nc3ccccc3nc2N2CCCC2)cc1` (stereo unspecified): the IC50 was > 54 µM (inactive) and the fold change was 1.67.

Take `COc1cc([N+](=O)[O-])ccc1-c1ccc(/C=N/NC(=O)c2ccccc2O)o1`: the IC50 is > 54 µM (inactive) and the fold change worked out at 0.5.

As for `CN(C)c1ccc(/C=c2/sc3n(c2=O)NC2(c4ccccc4)N(C)C(=O)N(C)C2(c2ccccc2)N=3)cc1` (stereo unspecified), the IC50 was > 54 µM (inactive) and the fold change worked out at 5.21.

In the case of `C=CCn1c(=O)[nH]c2nc3cc(N=CN(C)C)c(C)cc3nc2c1=O`, the IC50 is less than 0.42 µM and the fold change was found to be 40.

Take `O=[N+]([O-])c1ccc(/C=C/c2nc3ccc([N+](=O)[O-])cc3[nH]2)cc1`: the half-inhibitory concentration (IC50) is 2.48 µM and the fold change came to 1.15.

As to `Cc1cc(=O)oc2c3c4c(cc12)OCCN4CCC3`, the IC50 was 3.95 µM and the fold change is 3.5.

Regarding `Cc1ccc(/C=c2\sc3nc(-c4cccnc4)nn3c2=O)cc1`, the IC50 is > 54 µM (inactive) and the fold change was determined as 1.13.

Turning to `Cc1cc2nc3c(=O)[nH]c(=O)[nH]c3nc2c([N+](=O)[O-])c1N`, the IC50 was less than 0.42 µM and the fold change amounted to 67.

In the case of `Nc1ccc2nc3c(=O)[nH]c(=S)[nH]c3nc2c1`, the IC50 was less than 0.42 µM and the fold change was 86.2.

With `CN(CCC#N)C(=O)COC(=O)c1c2c(nc3ccccc13)/C(=C/c1ccco1)CC2`, the IC50 is 3.18 µM and the fold change was 2.86.

With `COc1ccccc1N1C(=O)C2C(C(=O)c3ccccc3)=NN(c3ccc(C)cc3)C2C1=O` (stereo unspecified), the IC50 was 3.66 µM and the fold change was 19.5.

With `CCCN1CC=C2C(C#N)=C(N)C(C#N)(C#N)C(c3cccc(OC)c3OC)C2C1` (stereo unspecified), the IC50 was 1.28 µM and the fold change was found to be 7.4.

As to `O=C1C2=C(SCCS2)C(=O)N1CCCO`, the half-maximal inhibitory concentration (IC50) is 2.57 µM and the fold change turned out to be 3.44.

In the case of `CCc1cc[n+](-c2nc3ccccc3nc2[N-]S(=O)(=O)c2ccc(Br)s2)cc1`, the IC50 is 3.71 µM and the fold change came to 3.49.

As to `CC1=CC(C#N)(C#N)C(C#N)(C#N)C(c2ccccc2)N1` (stereo unspecified), the IC50 is less than 0.42 µM and the fold change turned out to be 10.

For `CCOC(=O)Cn1c2ccc(OC)cc2c2nc3ccccc3nc21`, the IC50 was 0.79 µM and the fold change is 6.57.

With `N#Cc1c(SCC(N)=O)nc2c(c1-c1ccc(O)cc1)CCCC2`, the IC50 was > 54 µM (inactive) and the fold change stood at 0.89.

Regarding `COc1ccc(C2C(C(C)=O)=C(C)N=c3s/c(=C\c4cc(C)n(C)c4C)c(=O)n32)c(OC)c1` (stereo unspecified), the IC50 is 4.29 µM and the fold change was 11.8.

Consider `O=C(C1=C(O)C(=O)N(c2nccs2)C1c1ccccc1)c1cc2ccccc2o1` (stereo unspecified), for which the IC50 is less than 0.42 µM and the fold change turned out to be 161.
